Results taken from PubChem BioAssay (NCI).
“And” between values parts separate entries of the source, which are not always exact repeats. Equal entries are not always repeated.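 In this assay, cells in 96-well plates receive the compound at five concentrations for 48 hours. Endpoints are linearly interpolated between the surrounding concentrations. Abbreviation: GI50, concentration required for 50% inhibition of growth. TGI is the concentration that stops growth completely.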

Experiments:
Assay in all cases: DTP human tumour cell line panel, 48 h
CCRF-CEM leukemia = test system: CCRF-CEM leukemia
HCC-2998 colon = test system: HCC-2998 colon
HCT-15 colon = test system: HCT-15 colon
OVCAR-4 ovarian = test system: OVCAR-4 ovarian
RXF 393 renal = test system: RXF 393 renal
SF-539 CNS = test system: SF-539 CNS
SNB-19 CNS = test system: SNB-19 CNS
UACC-62 melanoma = test system: UACC-62 melanoma
MDA-MB-435 = test system: MDA-MB-435
NCI-H522 lung = test system: NCI-H522 lung

Structure (SMILES) | TGI (CCRF-CEM leukemia) | TGI (HCC-2998 colon) | TGI (HCT-15 colon) [µM] | TGI (OVCAR-4 ovarian) | TGI (RXF 393 renal) | TGI (SF-539 CNS) | TGI (SNB-19 CNS) | TGI (UACC-62 melanoma) | TGI (MDA-MB-435) [µM] | TGI (NCI-H522 lung) | GI50 (CCRF-CEM leukemia) [µM] | GI50 (HCC-2998 colon) [µM] | GI50 (HCT-15 colon) [µM] | GI50 (NCI-H522 lung) [µM] | GI50 (RXF 393 renal) [µM] | GI50 (SF-539 CNS) [µM] | GI50 (SNB-19 CNS) [µM] | GI50 (OVCAR-4 ovarian) [µM] | GI50 (UACC-62 melanoma) [µM] | GI50 (MDA-MB-435) [µM]
Cc1ccc(NC(=O)CC/C(CC(=O)C(C)(C)C)=N/NC(=O)C[N+](C)(C)C)cc1C | > 100 µM | > 100 µM | > 100 | > 100 µM | > 100 µM | 44.8 µM | > 100 µM | > 100 µM |  |  |  |  |  |  |  |  |  |  |  | 
CSc1nc2c(nc(N)n2C2OC(COC(C)=O)C(OC(C)=O)C(OC(C)=O)C2OC(C)=O)c(=O)n1C (configuration not stated) | > 100 µM | > 100 µM | > 100 | > 100 µM | > 100 µM | > 100 µM | > 100 µM | > 100 µM |  |  |  |  |  |  |  |  |  |  |  | 
COc1ccc(CNC(C)C(=O)O)cc1 (configuration not stated) | 65.5 µM |  | > 100 | > 100 µM | > 100 µM | > 100 µM | > 100 µM | > 100 µM | > 100 | > 100 µM |  |  |  |  |  |  |  |  |  | 
CCOC(=O)C1=C(C)N(Cc2ccccc2)C(=O)C1CC#N (configuration not stated) | > 100 µM | > 100 µM | > 100 | > 100 µM | > 100 µM | > 100 µM | > 100 µM | > 100 µM |  |  |  |  |  |  |  |  |  |  |  | 
O=S1(=O)NC2CCC3NS(=O)(=O)NC4CCC(N1)N4S(=O)(=O)N23 (configuration not stated) |  | > 100 µM | > 100 | > 100 µM | > 100 µM | > 100 µM | > 100 µM | > 100 µM | > 100 | > 100 µM |  |  |  |  |  |  |  |  |  | 
CO[C@]12C=C/C(=C(/C(=O)OCc3cccnc3)C(=O)CCCCCCCC[C@@]3(OC)C=C/C(=C(/C(=O)OCc4cccnc4)C(=O)CCCCCCCC1)O3)O2 | 7.8 µM | 1.84 µM | 2.82 |  | 1.7 µM | 7.91 µM | > 50 µM |  |  | 2.85 µM | 0.741 | 0.979 | 1.04 | 1.05 | 0.915 | 1.64 | 3.03 |  |  | 
COC(=O)NC(=Nc1ccc(Oc2ccccc2)cc1NC=O)NC(=O)OC | > 100 µM | 5.27 µM |  | > 100 µM |  | 2.49 µM | > 100 µM | > 100 µM |  | 0.449 µM |  |  |  |  |  |  |  |  |  | 
C=C(C)C1CC=C(C)CC1 (configuration not stated) | > 100 µM and 1670 µM | > 100 µM and 1730 µM | 1620 | > 100 µM and 2070 µM | > 100 µM and 1730 µM | > 100 µM and 1690 µM | > 100 µM and 1870 µM | > 100 µM and 1550 µM |  | > 100 µM and 1710 µM | > 100 | > 100 |  | > 100 | > 100 | > 100 | > 100 | > 100 | > 100 | 
Cn1c(=O)c2ccc(-c3ccc(Br)cc3)nc2n(C)c1=O | > 100 µM | > 100 µM | > 100 | > 100 µM |  | > 100 µM | > 100 µM | > 100 µM |  | > 100 µM |  |  |  |  |  |  |  |  |  | 
COc1ccc2c(c1)[n+]([O-])c(-c1ccc(Br)cc1)c(N)[n+]2[O-] | > 100 µM |  |  | > 100 µM | > 100 µM | > 100 µM | > 100 µM |  |  | 29.7 µM |  |  |  |  |  |  |  |  |  | 
COc1ccc(-c2nc(Nc3ccc(-c4nc5ccccc5[nH]4)cc3)nc(N3CCOCC3)n2)cc1 | > 100 µM | > 100 µM | 4.78 | 13 µM | 2.51 µM | 3.72 µM | > 100 µM |  |  | 5.85 µM | 3.11 | 3.09 | 1.67 | 2.36 | 0.459 | 1.63 | 3.49 | 3.13 |  | 
O=C(CC1(O)C(=O)Nc2ccccc21)c1ccc(F)cc1 (configuration not stated) |  |  | > 100 | > 100 µM | > 100 µM | > 100 µM | > 100 µM | > 100 µM |  | > 100 µM |  |  |  |  |  |  |  |  |  | 
CC(C)=CCC1=C(OCC(=O)O)C(=O)c2ccccc2C1=O | 54.7 µM |  | > 100 | 99.1 µM | 81.1 µM | 56.6 µM | 92.7 µM | 37.7 µM | 29 | 57.4 µM |  |  |  |  |  |  |  |  |  | 
N#Cc1cc([N+](=O)[O-])ccc1NC(=O)C(F)(F)F | > 100 µM | > 100 µM | > 58.5 | > 100 µM | > 100 µM | > 100 µM | > 100 µM | > 100 µM |  | > 100 µM |  |  |  |  |  |  |  |  |  | 
C/C=C(/CCC1NCCC2c3ccccc3NC12)[Si](C)(C)C (configuration not stated) | 57 µM | 3.61 µM | 24.9 | 20.9 µM | 19.2 µM | 29.5 µM | 29 µM | 26.4 µM |  | 30.2 µM |  |  |  |  |  |  |  |  |  | 
c1ccc(CN2CCC3(CC2)SSC2(CCN(Cc4ccccc4)CC2)SS3)cc1 |  | > 100 µM | > 100 | > 100 µM | > 100 µM | > 100 µM | > 100 µM | > 100 µM | > 100 | > 100 µM |  |  |  |  |  |  |  |  |  | 
O=[N+]([O-])c1ccc(Sc2nc(Cl)nc(NC3CCCC3)n2)cc1 |  | > 10 µM | > 10 | > 10 µM | > 10 µM | > 10 µM | > 10 µM | > 10 µM | > 10 |  |  | > 10 | > 10 |  | 3.34 | > 10 | > 10 | > 10 | > 10 | > 10
COC(=O)NN1C(C)=C(C(=O)OC)C2(C#N)C(C(=O)OC)=C(C)N(NC(=O)OC)C12N (configuration not stated) | > 100 µM | > 100 µM | > 100 | > 100 µM |  | > 100 µM | > 100 µM | > 100 µM |  | > 100 µM |  |  |  |  |  |  |  |  |  | 
O=c1c2c(c3ccccc3n1-c1ccccc1)NC(=S)NC2c1ccc(Cl)cc1 (configuration not stated) | > 100 µM | 16.3 µM | 26.8 | > 100 µM | 25.5 µM | 42.6 µM | > 100 µM | 10.6 µM | 31 |  | 3.79 | 2.2 | 2.1 |  | 5.34 | 2.37 | 4.07 | 5.66 | 1.49 | 3.27
N.N.O=P([O-])([O-])CN(CCN(CP(=O)([O-])[O-])CP(=O)([O-])[O-])CP(=O)([O-])[O-].[Pt+2] |  | > 100 µM |  | > 100 µM | > 100 µM | > 100 µM | > 100 µM | > 100 µM |  |  |  | > 100 |  |  | > 100 | > 100 | > 100 | > 100 | > 100 | 
